The values that follow come from paper PMC8528301 (PLoS ONE, 2021).

Like-named read-outs stand apart in the source and are kept apart here.

For data set [1] the following is noted: no reference given, cited from earlier work.
For data set [2] the following is noted: serum. From the text: (§1) To generate VD3 deficient and sufficient mice, day 4–5 estrus (E5-E6) pregnant C57BL/6J female mice from Jackson Laboratories (Bar Harbor, ME) were kept on the VD3 deficient (Harlan catalog no. 5A69, 0 IU of vitamin D) and VD3 sufficient diets, (catalog. No. 5BV8, 3.3 IU of vitamin D) to develop vitamin D deficient and vitamin D sufficient mice, respectively. Pregnant dams were maintained on these diets throughout pregnancy, and after parturition, and pups were maintained on the corresponding diets after weaning as described in [16]. The pups were age matched and both male and female, VD3 deficient and VD3 sufficient mice were used for Cyp3a expression, pharmacokinetic and efficacy studies.
To observe the effect of vitamin D status on hCYP3A4 expression, cryopreserved hCYP3A4 transgenic (tg) mouse sperm was used to re-derive the humanized CYP3A4 transgenic mouse model. Human CYP3A4 transgenic mice were obtained from the laboratory of Dr. Frank Gonzalez (Laboratory of Metabolism, Center for Cancer Research, National Cancer Institute, National Institutes of Health, Bethesda). To generate hCYP3A4-Tg VD3 deficient and sufficient mice, E5-E6 hCYP3A4-Tg pregnant female mice were kept on VD3 deficient and VD3 sufficient diets throughout pregnancy and after parturition as described for C57BL/6J mice above. Pups were maintained on the corresponding diets after weaning and were euthanized at 12 weeks of age for tissue collection, blood was collected by cardiac puncture and serum was isolated and stored at -80°C. Tissues such as intestine (duodenum), liver and kidney were harvested and stored in RNA later at -20°C.
Serum samples from all animals in this manuscript were collected but only a few samples were randomly selected across studies and sent to the Veterinary Diagnostic Laboratory at Michigan State University (Lansing, MI) for serum 25-(OH) VD3 analysis.

For data set [3], the system named is duodenal mCyp3a and drug efflux transporter mRNA expression. Nature of the data set: qPCR of Cyp3a and efflux transporter mRNA in duodenum of VD3 sufficient vs deficient C57BL/6 mice. In kind it is in vivo, mouse. The following applies: n=3.
From the text: as §1
Mouse intestine (duodenum), liver and kidney tissues stored in RNA later at -20°C were used for RNA isolation. Trizol (Ambion Life technologies, CA, USA or Thermo Fisher scientific, CA, USA) was used to extract RNA according to the manufacturers protocol. Sterile Omni tips (OMNI International, GA, USA) were used to homogenize the tissue using Omni tissue homogenizer. 500 ng of RNA was used to generate cDNA using the Thermoscript™ RT-PCR system (Invitrogen ThermoFisher, CA, USA). The cDNA was diluted to a total volume of 70 μL. Primers used for the amplification: […]
Real-time PCR quantification was performed using SYBR GreenER™ qPCR supermix for ABI PRISM Instrument (Life Technologies, Grand Island, NY) according to manufacturer’s instructions. Samples were run at the following conditions: 95°C for 15 min, 40 cycles of 92°C for 30 sec, 60°C for 30 sec, 68°C for 1 min followed by a dissociation step. The relative amounts of mRNAs in each sample were normalized to Villin or Gapdh for intestine samples or Gapdh values for liver and kidney samples to control for quality of the mRNA. Comparative CT (ΔΔCt) method was used to determine quantitative PCR values.
Fig 1 Cyp and transporter gene expression in duodenum of VD3 sufficient and deficient mice. Influence of VD3 deficiency on duodenal mCyp3a11, mCyp3a13, mCyp3a44 (A,B) and drug efflux transporter mRNA expression (C,D) in 12 wk old C57BL/6 mice (A, C)) and hCYP3A4-tg mice (B,D) (male, n = 3 and female, n = 3/strain). Data are expressed as mean (bars) + SD (error bars) fold change in mRNA expression in deficient mice relative to each mRNAs expression in sufficient mice set as one. Villin was used as an internal control to normalize the target gene expression data. Mann-Whitney nonparametric test on GraphPad was used to determine significance between the groups (**p<0.01, *p<0.05).

The mark [4] stands for this setting: female C57BL/6, VD3 deficient vs sufficient = 1, Villin.
Where [5] appears, read: male C57BL/6, VD3 deficient vs sufficient = 1, Villin.

One may read the half-life as how long it takes for the measured level to halve. In the case of `C=C1/C(=C\C=C2/CCC[C@]3(C)[C@@H]([C@H](C)CCCC(C)(C)O)CC[C@@H]23)C[C@@H](O)C[C@@H]1O` [1,25 (OH)2 VD3], the half-life in data set [1] (serum 1,25 (OH)2 VD3, biologically short lived) is on record as ~ 15 hours.

As for `C=C1CC[C@H](O)C/C1=C/C=C1\CCC[C@]2(C)[C@@H]([C@H](C)CCCC(C)(C)O)CC[C@@H]12` [25-(OH) VD3], in data set [1] (serum 25(OH)VD3), the half-life is on record as 15 days. Moreover, the “Mean (25-(OH) VD3” value in data set [2] (C57BL/6, VD3 Deficient, n=6) is listed as 12 nmol/L; in data set [2] (C57BL/6, VD3 Sufficient, n=2) it was 324.50 nmol/L; in data set [2] (hCYP3A4-tg, VD3 Deficient, n=4), 14.75 nmol/L; in data set [2] (hCYP3A4-tg, VD3 Sufficient, n=4) it was 219 nmol/L.

Take `C=C1CC[C@H](O)C/C1=C/C=C1\CCC[C@]2(C)[C@@H]([C@H](C)CCCC(C)C)CC[C@@H]12` [VD3, Vitamin D3]: in data set [3] (setting [4]), the “avg fold chnge Cyp3a11 mRNA” value is given as 0.2614 fold, the “avg fold chnge cyp3a13 mRNA” value was determined as 0.2206 fold, the “avg fold chnge cyp3a25 mRNA” value was 1.068 fold and the “avg fold chnge cyp3a44 mRNA” value is 0.139 fold. Further, in data set [3] (male C57BL/6, VD3 deficient (GCD) vs VD3 sufficient = 1, normalised to Villin), the “avg fold change Cyp3a11 mRNA” value worked out at 0.299 fold. Moreover, in data set [3] (setting [5]), the “avg fold change Cyp3a13 mRNA” value amounted to 0.1229 fold, the “avg fold change Cyp3a25 mRNA” value is on record as 0.2366 fold, the “avg fold change Cyp3a41 mRNA” value was 0.2185 fold and the “avg fold change Cyp3a44 mRNA” value came out at 0.1467 fold. For the same compound, in data set [3] (setting [5]), the “avg fold change bcrp mRNA” value stood at 0.5071 fold, the “avg fold change mPXR mRNA” value was determined as 0.5697 fold, the “avg fold change mVDR mRNA” value worked out at 0.3209 fold and the “avg fold change mdr1a mRNA” value amounted to 0.5457 fold.
